Values belong to the compound of their own block, whether it stands above or below them. Active and inactive are the calls of the source.
How the values were obtained:
[1] = target: DNA dC->dU-editing enzyme APOBEC-3G (Homo sapiens, UniProt Q9HC16); assay type: functional;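 also: Dose-response counterscreen measuring inhibition of APOBEC3G DNA deaminase activity, run while confirming APOBEC3A inhibitors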
[2] = target: DNA dC->dU-editing enzyme APOBEC-3A (Homo sapiens, UniProt P31941); experiment: Dose Response confirmation of small molecule APOBEC3A DNA Deaminase Inhibitors via a fluorescence-based single-stranded DNA deaminase assay. [Related pubchem assays (depositor defined):AID493011, AID493024]; assay type: functional
Estrogen receptor beta = Estrogen receptor beta (Homo sapiens, UniProt Q92731);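 also: recombinant ER-beta bound to coactivator SRC1 peptide in presence of estradiol agonist; inhibitors block coactivator peptide binding and lower the FRET signal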
Estrogen receptor = target: T1, Estrogen receptor (Homo sapiens, UniProt P03372);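 also: potency for inhibiting coactivator peptide recruitment to the receptor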
T1 sequence (P03372 whole entry): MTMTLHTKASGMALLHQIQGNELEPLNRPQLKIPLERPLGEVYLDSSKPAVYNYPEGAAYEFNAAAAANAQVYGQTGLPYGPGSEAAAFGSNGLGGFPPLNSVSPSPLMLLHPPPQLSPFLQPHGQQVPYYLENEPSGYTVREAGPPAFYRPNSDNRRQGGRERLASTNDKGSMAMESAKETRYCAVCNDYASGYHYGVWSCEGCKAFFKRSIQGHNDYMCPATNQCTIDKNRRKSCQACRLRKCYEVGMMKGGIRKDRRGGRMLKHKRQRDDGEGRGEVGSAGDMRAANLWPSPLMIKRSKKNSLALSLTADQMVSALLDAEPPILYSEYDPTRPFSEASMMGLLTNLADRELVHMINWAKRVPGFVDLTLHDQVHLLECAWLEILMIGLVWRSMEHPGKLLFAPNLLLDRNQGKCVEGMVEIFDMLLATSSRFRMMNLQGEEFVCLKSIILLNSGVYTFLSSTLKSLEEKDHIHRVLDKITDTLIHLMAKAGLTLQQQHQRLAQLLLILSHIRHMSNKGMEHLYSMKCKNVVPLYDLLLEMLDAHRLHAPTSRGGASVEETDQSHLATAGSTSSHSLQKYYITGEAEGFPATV

Trypsin = Trypsin (Sus scrofa, UniProt P00761); experiment: porcine trypsin inhibitors, dose response, selectivity assay for Rce1 protease inhibitor project, biochemical, quenched peptide fluorescence, cherry-pick (AID 488789)
[3] = target: Glyceraldehyde-3-phosphate dehydrogenase (Homo sapiens, UniProt P04406)
[4] = target: T2, Alkaline phosphatase, tissue-nonspecific isozyme (Homo sapiens, UniProt P05186); experiment: human TNAP enzyme inhibitors, SAR follow-up, biochemical, luminescent, dose response (AID 1056)
T2 sequence (P05186 whole entry): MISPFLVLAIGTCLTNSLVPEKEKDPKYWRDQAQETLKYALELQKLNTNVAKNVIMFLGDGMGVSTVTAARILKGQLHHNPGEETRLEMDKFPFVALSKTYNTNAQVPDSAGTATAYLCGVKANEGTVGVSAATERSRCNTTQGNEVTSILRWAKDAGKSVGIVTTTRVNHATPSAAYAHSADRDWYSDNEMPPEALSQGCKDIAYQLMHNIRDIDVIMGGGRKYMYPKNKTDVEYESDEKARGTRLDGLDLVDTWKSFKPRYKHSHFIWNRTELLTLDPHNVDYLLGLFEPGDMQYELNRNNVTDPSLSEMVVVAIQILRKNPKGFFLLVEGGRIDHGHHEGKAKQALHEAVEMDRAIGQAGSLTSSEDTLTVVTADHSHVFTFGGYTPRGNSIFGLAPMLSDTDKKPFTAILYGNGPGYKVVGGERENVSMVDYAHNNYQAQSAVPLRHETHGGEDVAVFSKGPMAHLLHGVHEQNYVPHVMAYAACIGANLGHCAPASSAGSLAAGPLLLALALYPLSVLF

Cytochrome P450 2C9 = Cytochrome P450 2C9 (Homo sapiens, UniProt P11712); settings: Potency
Aminopeptidase N = target: T3, Aminopeptidase N (Plasmodium falciparum FcB1/Columbia, UniProt O96935); experiment: P. falciparum M1AAP inhibitors, biochemical, fluorogenic H-Leu-NHMec substrate, 1536-well (AID 1445); design: species or system Plasmodium falciparum 3D7, 3D7
T3 sequence (O96935 whole entry): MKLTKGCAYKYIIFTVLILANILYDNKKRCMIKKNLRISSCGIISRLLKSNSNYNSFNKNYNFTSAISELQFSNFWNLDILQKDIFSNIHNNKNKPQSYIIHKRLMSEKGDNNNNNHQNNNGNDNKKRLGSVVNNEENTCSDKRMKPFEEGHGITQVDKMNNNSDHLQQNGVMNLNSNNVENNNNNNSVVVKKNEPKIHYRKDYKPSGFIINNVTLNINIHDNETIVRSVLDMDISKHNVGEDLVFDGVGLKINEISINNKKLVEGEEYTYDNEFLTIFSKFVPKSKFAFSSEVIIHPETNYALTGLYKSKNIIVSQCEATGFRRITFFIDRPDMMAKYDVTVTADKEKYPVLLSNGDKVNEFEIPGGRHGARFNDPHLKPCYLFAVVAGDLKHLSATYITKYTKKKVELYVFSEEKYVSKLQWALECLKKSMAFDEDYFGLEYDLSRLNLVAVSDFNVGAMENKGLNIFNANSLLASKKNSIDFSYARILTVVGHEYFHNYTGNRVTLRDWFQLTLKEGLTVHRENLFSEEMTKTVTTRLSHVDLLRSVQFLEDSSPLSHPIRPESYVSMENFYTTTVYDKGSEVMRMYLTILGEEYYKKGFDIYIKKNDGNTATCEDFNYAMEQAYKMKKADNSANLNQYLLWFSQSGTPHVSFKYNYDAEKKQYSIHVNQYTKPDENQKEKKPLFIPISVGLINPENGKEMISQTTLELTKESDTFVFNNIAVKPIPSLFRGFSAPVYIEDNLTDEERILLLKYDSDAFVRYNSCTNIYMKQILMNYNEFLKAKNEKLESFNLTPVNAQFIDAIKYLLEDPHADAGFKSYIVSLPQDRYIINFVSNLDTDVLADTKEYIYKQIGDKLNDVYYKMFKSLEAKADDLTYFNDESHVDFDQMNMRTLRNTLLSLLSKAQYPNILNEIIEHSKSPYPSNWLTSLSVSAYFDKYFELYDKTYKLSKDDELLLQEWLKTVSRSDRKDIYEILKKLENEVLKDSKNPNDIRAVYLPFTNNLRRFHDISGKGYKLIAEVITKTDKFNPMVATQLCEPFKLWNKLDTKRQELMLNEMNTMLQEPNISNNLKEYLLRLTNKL

[5] = target: T4, Mannose-6-phosphate isomerase (Homo sapiens, UniProt P34949); experiment: human PMI inhibitors, high substrate, primary screen, biochemical, fluorescence intensity, high mannose 6-phosphate (AID 1220)
T4 sequence (P34949 whole entry): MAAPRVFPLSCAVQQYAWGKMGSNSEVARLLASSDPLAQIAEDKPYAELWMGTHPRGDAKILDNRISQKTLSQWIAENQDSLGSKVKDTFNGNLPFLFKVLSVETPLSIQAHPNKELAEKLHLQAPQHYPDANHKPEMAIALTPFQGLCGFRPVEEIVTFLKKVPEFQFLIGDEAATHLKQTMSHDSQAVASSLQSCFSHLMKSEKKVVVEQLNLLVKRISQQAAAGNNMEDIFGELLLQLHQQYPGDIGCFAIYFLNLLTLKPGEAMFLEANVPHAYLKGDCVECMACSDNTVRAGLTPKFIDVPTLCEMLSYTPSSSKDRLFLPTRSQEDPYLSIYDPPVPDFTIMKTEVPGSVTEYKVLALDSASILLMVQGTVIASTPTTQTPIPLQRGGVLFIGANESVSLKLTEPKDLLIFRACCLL

Paired box protein Pax-8 = Paired box protein Pax-8 (Homo sapiens, UniProt Q06710); experiment: inhibitors of PAX8-driven TPO luciferase reporter, dose response, RMG-I cells, cherry-pick (AID 687027); assay type: functional, cell-based;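 also: luciferase reporter driven by Pax8 target thyroperoxidase promoter measured by SteadyGlo luminescence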
[6] = NIH-3T3 fibroblast cytotoxicity, dose response, cytotoxicity control, cell-based, fluorescence, Alamar Blue, secondary assay (AID 2327); assay type: functional;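 also: NIH-3T3 mouse fibroblasts cultured with fluconazole at 8 µg/mL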
[7] = C. albicans growth with fluconazole, confirmation, fluorescence, retest (AID 2467); assay type: functional, cell-based
[8] = target: T5, Heat shock factor protein 1 (Mus musculus, UniProt P38532); experiment: inhibition of MG132-induced HSE-luciferase signal, confirmation, cell-based, NIH3T3, luminescence, dose retest (AID 2382); assay type: functional;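 also: NIH3T3 fibroblasts with HSF1-driven luciferase reporter stressed by proteasome inhibitor MG132; luminescence from HSF1-driven luciferase expression after 8 hours of MG132 stress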
T5 sequence (P38532 whole entry): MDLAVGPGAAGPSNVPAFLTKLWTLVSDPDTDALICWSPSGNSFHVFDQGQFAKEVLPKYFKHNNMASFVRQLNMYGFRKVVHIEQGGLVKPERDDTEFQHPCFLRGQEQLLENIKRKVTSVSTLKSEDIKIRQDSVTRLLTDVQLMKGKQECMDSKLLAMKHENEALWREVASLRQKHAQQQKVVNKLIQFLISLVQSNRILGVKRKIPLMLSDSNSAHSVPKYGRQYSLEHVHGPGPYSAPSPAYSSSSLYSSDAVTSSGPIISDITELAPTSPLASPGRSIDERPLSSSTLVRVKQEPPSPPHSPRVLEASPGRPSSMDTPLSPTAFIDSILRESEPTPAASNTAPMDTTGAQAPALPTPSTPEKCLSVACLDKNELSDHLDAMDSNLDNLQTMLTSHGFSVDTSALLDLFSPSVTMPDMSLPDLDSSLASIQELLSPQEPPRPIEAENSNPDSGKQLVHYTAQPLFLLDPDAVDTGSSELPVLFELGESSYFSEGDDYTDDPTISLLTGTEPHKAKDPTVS

[9] = target: T5, Heat shock factor protein 1; experiment: HSF1 potentiators in luciferase reporter cells, confirmation, cell-based, NIH3T3, luminescence, dose retest (AID 435004); assay type: functional;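 also: stress induced by proteasome inhibitor MG132 added 30 min after compound; luciferase reporter driven by HSF1 response element in NIH3T3 cells; actives raise luminescence as potentiators of the MG132 stress response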

Cytochrome P450 2C9, sequence (P11712 whole entry): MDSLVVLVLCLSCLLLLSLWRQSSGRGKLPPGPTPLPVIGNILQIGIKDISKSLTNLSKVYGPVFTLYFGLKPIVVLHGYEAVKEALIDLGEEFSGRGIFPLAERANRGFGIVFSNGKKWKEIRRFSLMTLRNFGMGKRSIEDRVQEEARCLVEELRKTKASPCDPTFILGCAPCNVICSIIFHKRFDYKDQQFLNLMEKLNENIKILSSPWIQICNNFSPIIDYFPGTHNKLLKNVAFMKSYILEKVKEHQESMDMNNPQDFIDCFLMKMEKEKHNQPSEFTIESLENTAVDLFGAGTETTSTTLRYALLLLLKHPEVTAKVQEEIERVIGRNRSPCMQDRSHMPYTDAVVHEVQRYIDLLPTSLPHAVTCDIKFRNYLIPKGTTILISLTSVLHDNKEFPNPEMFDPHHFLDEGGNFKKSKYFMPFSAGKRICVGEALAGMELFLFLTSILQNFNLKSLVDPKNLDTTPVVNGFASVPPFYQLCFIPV
Glyceraldehyde-3-phosphate dehydrogenase, sequence (P04406 whole entry): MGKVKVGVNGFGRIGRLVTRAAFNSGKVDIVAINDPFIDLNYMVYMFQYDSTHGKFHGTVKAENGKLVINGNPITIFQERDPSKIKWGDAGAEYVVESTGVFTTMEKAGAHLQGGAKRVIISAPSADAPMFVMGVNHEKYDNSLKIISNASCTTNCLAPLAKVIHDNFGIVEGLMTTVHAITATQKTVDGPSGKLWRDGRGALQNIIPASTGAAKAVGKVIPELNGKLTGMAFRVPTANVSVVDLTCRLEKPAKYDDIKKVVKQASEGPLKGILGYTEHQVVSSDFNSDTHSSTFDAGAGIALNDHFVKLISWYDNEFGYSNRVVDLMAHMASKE
DNA dC->dU-editing enzyme APOBEC-3A, sequence (P31941 whole entry): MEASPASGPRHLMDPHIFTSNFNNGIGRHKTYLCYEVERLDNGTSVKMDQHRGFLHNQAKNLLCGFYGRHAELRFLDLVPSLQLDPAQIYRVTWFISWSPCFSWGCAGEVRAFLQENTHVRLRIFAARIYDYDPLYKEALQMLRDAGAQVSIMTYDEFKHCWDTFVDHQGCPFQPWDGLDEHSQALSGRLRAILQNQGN
DNA dC->dU-editing enzyme APOBEC-3G, sequence (Q9HC16 whole entry): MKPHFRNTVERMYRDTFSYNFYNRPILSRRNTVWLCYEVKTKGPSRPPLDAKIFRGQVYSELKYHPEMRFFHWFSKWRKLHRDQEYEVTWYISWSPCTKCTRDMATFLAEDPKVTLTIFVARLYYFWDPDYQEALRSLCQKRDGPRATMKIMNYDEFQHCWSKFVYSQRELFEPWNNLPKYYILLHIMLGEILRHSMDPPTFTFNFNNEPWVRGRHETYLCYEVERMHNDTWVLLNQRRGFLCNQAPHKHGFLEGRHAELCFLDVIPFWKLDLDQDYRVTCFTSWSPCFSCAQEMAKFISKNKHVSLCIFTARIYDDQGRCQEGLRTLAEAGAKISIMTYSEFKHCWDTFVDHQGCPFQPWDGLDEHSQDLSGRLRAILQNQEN
Paired box protein Pax-8, sequence (Q06710 whole entry): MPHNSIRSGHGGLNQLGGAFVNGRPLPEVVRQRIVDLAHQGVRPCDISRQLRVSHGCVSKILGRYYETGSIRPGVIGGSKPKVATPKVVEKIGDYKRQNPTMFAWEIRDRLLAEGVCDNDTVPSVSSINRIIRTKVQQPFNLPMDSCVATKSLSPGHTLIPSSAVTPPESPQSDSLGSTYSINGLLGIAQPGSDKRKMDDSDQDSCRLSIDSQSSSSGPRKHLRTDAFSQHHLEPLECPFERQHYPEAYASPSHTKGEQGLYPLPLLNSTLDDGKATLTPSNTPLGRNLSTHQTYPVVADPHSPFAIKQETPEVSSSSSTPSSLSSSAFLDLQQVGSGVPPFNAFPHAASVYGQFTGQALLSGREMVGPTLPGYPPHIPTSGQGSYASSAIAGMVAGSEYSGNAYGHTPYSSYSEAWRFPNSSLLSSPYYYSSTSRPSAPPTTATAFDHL
Estrogen receptor beta, sequence (Q92731 whole entry): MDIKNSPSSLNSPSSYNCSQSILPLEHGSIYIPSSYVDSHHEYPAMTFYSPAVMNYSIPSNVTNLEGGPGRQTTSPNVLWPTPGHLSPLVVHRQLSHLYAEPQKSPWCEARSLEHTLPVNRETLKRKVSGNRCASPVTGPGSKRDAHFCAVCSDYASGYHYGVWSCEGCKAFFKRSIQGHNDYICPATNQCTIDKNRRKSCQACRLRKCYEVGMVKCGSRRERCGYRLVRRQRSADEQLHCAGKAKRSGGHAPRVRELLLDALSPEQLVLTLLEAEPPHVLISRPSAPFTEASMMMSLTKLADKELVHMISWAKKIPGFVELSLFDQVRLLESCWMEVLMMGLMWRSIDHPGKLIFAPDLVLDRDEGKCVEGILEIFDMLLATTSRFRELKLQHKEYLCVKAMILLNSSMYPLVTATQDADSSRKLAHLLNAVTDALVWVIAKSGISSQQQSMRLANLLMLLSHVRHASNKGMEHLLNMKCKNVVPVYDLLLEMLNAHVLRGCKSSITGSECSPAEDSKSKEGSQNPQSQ
Trypsin, sequence (P00761 whole entry): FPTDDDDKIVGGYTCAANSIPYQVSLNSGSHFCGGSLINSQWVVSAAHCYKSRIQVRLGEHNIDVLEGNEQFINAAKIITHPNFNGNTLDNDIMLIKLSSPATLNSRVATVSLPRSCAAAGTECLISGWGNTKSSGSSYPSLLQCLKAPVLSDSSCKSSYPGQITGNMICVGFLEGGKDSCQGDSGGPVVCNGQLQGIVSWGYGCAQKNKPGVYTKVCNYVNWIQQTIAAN

SMILES: CNC(=O)/C(C#N)=C\c1ccc(CNS(=O)(=O)c2ccc(Cl)cc2)o1
- IC50 [1]: 2.81 µM (active)
- IC50 [2]: 3.02 µM (active)

SMILES: O=C(Cc1cccs1)Nc1ccccn1
- IC50 (Estrogen receptor beta): 16.8 µM (active)
- IC50 (Estrogen receptor): 13.4 µM (active)

SMILES: CC(C)C[C@@H](CC(=O)N[C@@H](CCC(=O)O)CC(=O)O)NC(=O)[C@@H]1CCCC[C@H]1NC(=O)C[C@@H](NC(=O)C[C@H](CO)NC(=O)[C@@H]1CNCC[C@H]1N)C(C)C
- AC50 (Cytochrome P450 2C9): 31.6 µM (inconclusive)

SMILES: Cc1cccc(NCc2ccc(O)c3ncccc23)c1C
- IC50 [5]: > 50 µM (not active)
- AC50 (Paired box protein Pax-8): 15 µM (active)
- EC50 [6]: > 150 µM (inactive)
- EC50 [7]: > 38 µM (not active)
- EC50 [8]: > 195 µM (not active)

SMILES: CC(C)C(CO)N1CCN(Cc2ccccc2)CCC1=O (stereo not drawn)
- IC50 [1]: 10.1 µM (active)
- IC50 [2]: 8.79 µM (active)

SMILES: CC(C)C[C@@H](CC(=O)N[C@@H](CCCN)CC(=O)N[C@@H]1CCNC[C@H]1C(=O)N[C@H](CC(=O)N[C@@H](CCC(=O)O)CC(=O)O)CC(C)C)NC(=O)[C@@H]1CNCC[C@H]1N
- AC50 (Cytochrome P450 2C9): 39.8 µM (inconclusive)

SMILES: CC(C)C[C@@H](CC(=O)N[C@H](CC(=O)N[C@@H]1CCCC[C@H]1C(=O)N[C@H](CC(=O)N[C@@H](CCC(=O)O)CC(=O)O)Cc1ccccc1)C(C)C)NC(=O)[C@@H]1CNCC[C@H]1N
- AC50 (Cytochrome P450 2C9): 31.6 µM (inconclusive)

SMILES: O=C(O)COc1ccc(/C=N/n2c(COc3ccccc3)nc3ccccc3c2=O)cc1
- IC50 (Aminopeptidase N): 8.94 µM (active)

SMILES: Cc1nc(-c2cccnc2)c[nH]1
- IC50 [3]: > 100 µM (not active)
- IC50 [4]: > 100 µM (inactive)

Second part, the compound after the results:

- AC50 (Trypsin): 8.06 µM (active)
SMILES: Cc1cc2nn(-c3cccc4ccccc34)nc2cc1NC(=O)c1cccs1

- IC50 [3]: > 100 µM (not active)
- IC50 [4]: > 100 µM (inactive)
SMILES: Cc1ccc(-c2ccc(C(=O)O)[nH]2)cc1

- IC50 (Aminopeptidase N): 43.3 µM (active)
SMILES: COc1ccc(-c2[nH]nc3c2C2(C(=O)N(CC(=O)O)c4ccccc42)C(C#N)=C(N)O3)cc1OC (stereo not drawn)

- EC50 [9]: > 260 µM (inactive)
- IC50 (Aminopeptidase N): 26.9 µM (active)
SMILES: Cc1ccc(S(=O)(=O)NNC(=O)c2sc3nc(C)cc(C)c3c2-n2cccc2)cc1
